According to patent US8859490B2, “Peptide nucleic acid monomers and oligomers” (Nanyang Technological University, priority 2008, dated 2014):
“Also recorded” adds a separate entry of the source.

What follows are substances tested on Hela cells (assay: Cell uptake of FAM-labelled oligomers, fluorescence confocal microscopy). Conditions: fluorescein-labelled, 0.5 μM, 24 h, 37° C.
Assay type: cell-based
Protocol: Culture and transfection of Hela cells with fluorescein-labeled aegPNA, AP-PNA, GP-PNA oligomers and Tat peptide were carried out according to previously published protocols (Janowski, B. A., et al., Nature Protocols (2006) 1, 436; Shiraishi, T., &. Nielsen, P. E., Nature Protocols (2006) 1, 633). Hela cells were grown in 75-cm^2 culture flasks at 37° C. in an atmosphere of 5% CO2 in Hyclone DMEM/High Glucose medium without antibiotics and were plated at 100,000 cells per well on 6-well Lab-Tek chambered coverglass slides in DMEM medium and cultured two days before transfection. Oligomer solutions were prepared by diluting a 200 μM stock solution at 1×PBS buffer to 0.5 μM with warmed (37° C.) medium. The cell medium was discarded and cells were washed with 1×PBS buffer followed by incubation with the above prepared oligomers at a concentration of 0.5 μM for 24 h at 37° C. in an atmosphere of 5% CO2. The medium was removed and cells were washed with 1×PBS buffer (2 mL×3) and fixed with […]. The cells were imaged with Olympus IX51 fitted with Cool SNAP^HQ camera and analyzed using Metamorph software (Molecular Devices).
For the present example the GP-PNA and AP-PNA with the 6-C spacer was chose to examine the cell-uptake activity, since these display the strongest binding affinity when complexed to complementary DNA. Dodecamer aegPNA (Fl-TAGTAGATCACT-Gly-NH2) (SEQ ID NO:1), AP-PNA (Fl-TA^6aGT^6aAG^6aAT^6aCA^6aCT^6a-Gly-NH2) (SEQ ID NO:2), GP-PNA (Fl-TA^6gGT^6gAG^6gAT^6gCA^6gCT^6g-Gly-NH2) (SEQ ID NO:3) oligomers and Tat peptide (Fl-Tyr-Gly-Arg-Lys-Lys-Arg-Arg-Gln-Arg-Arg-Arg-NH2) (SEQ ID NO:4) were synthesized and labeled by fluorescein at the N-terminus. These oligomers were incubated with Hela cells for 24 h at 37° C. and were fixed by paraformaldehyde after PBS (1×) buffer washing. Their uptake properties were determined by fluorescence confocal microscopy. […] To conclude, the guanidino groups pendant from the backbone amide nitrogen confer cell-permeability to the modified PNAs.

Row | Substance | cell uptake (fluorescence in cells)
1 | Fl-TA^6gGT^6gAG^6gAT^6gCA^6gCT^6g-Gly-NH2 [GP-PNA] | clear and strong fluorescence images were detected in almost all cells; also recorded: readily taken up by Hela cells
2 | Fl-TAGTAGATCACT-Gly-NH2 [aegPNA, reference compound] | poor cell uptake property
3 | Fl-TA^6aGT^6aAG^6aAT^6aCA^6aCT^6a-Gly-NH2 [AP-PNA] | better cell uptake property than the aegPNA; also recorded: moderate enhancement in cell uptake activity compared with aegPNA
